Assay results as given in ChEMBL document CHEMBL5096158, “HIV latency reversal agents: A potential path for functional cure?” (Eur J Med Chem, 2021).

Assays:
[1] = system: Human immunodeficiency virus 1; assay: Reversal of HIV-1 latency infected in human J-Lat Tat-GFP Clone A7 cells assessed as increase in GFP expressing cells at 200 nM incubated for 72 hrs by flow cytometry analysis relative to control; format: functional
[2] = system: Human immunodeficiency virus 1; assay: Reversal of HIV-1 latency infected in human U1 cells assessed as fold increase in p24 expression level at 15.6 nM incubated for 48 hrs by ELISA; format: functional
[3] = system: Human immunodeficiency virus 1; assay: Reversal of HIV-1 latency infected in human ACH-2 cells assessed as fold increase in p24 expression level at 15.6 nM incubated for 48 hrs by ELISA; format: functional, ACH-2 cell line
[4] = system: Human immunodeficiency virus 1; assay: Reversal of HIV-1 latency infected in human ACH-2 cells assessed as fold increase in p24 expression level at 31.1 nM incubated for 48 hrs by ELISA; format: functional, ACH-2 cell line
[5] = system: Human immunodeficiency virus 1; assay: Reversal of HIV-1 latency infected in human U1 cells assessed as fold increase in p24 expression level at 31.1 nM incubated for 48 hrs by ELISA; format: functional
[6] = Inhibition of HIV-1 latency in human CD4+ve Th cells infected NL4.3-Luc virus assessed as p24 expression level incubated for 48 hrs by v450 dye based flow cytometry; format: functional, cell-based; conditions: Human immunodeficiency virus 1, CD4+ve Th
[7] = system: Human immunodeficiency virus 1; assay: Reversal of HIV-1 latency infected in GFP-fused human J-Lat C11 cells assessed as increase in GFP expression at 100 uM incubated for 72 hrs by flow cytometry; format: functional
Histone deacetylase 4 = Histone deacetylase 4 (Homo sapiens, UniProt P56524); assay: Inhibition of recombinant human HDAC4 expressed in baculovirus expression system using KI-104 as substrate incubated for 3 hrs by fluorescence-based assay
Histone deacetylase 4, sequence (P56524 whole entry): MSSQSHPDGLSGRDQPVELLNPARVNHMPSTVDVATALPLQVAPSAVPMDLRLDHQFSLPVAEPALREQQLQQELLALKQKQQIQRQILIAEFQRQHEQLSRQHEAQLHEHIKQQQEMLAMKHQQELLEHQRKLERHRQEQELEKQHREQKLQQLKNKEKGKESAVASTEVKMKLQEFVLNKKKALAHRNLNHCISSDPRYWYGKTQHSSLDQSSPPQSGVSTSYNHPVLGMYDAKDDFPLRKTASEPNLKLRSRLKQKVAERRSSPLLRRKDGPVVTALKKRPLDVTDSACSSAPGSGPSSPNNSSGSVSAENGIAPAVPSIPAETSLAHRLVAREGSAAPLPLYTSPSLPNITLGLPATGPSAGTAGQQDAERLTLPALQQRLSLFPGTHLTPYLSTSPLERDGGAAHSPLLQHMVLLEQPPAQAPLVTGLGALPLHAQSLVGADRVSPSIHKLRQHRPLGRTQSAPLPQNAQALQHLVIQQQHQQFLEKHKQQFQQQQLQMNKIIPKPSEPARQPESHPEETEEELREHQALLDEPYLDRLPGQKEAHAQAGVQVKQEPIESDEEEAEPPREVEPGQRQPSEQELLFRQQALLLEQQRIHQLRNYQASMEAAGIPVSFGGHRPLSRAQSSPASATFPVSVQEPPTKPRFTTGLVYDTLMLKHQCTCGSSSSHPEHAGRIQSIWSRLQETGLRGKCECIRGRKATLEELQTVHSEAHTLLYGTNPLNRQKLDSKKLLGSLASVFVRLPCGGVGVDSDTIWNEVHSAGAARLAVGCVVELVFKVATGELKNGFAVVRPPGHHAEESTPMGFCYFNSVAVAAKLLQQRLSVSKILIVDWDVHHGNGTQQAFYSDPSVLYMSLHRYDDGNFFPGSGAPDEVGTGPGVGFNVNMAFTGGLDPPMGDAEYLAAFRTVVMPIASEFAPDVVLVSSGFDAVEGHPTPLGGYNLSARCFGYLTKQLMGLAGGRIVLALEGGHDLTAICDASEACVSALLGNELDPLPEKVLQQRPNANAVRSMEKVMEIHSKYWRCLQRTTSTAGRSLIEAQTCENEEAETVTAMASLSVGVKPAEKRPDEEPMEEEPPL

[8] = target: T1, Protein deacetylase HDAC6 (Homo sapiens, UniProt Q9UBN7); assay: Inhibition of recombinant human HDAC6 expressed in baculovirus expression system using KI-104 as substrate incubated for 3 hrs by fluorescence-based assay
T1 sequence (Q9UBN7 whole entry): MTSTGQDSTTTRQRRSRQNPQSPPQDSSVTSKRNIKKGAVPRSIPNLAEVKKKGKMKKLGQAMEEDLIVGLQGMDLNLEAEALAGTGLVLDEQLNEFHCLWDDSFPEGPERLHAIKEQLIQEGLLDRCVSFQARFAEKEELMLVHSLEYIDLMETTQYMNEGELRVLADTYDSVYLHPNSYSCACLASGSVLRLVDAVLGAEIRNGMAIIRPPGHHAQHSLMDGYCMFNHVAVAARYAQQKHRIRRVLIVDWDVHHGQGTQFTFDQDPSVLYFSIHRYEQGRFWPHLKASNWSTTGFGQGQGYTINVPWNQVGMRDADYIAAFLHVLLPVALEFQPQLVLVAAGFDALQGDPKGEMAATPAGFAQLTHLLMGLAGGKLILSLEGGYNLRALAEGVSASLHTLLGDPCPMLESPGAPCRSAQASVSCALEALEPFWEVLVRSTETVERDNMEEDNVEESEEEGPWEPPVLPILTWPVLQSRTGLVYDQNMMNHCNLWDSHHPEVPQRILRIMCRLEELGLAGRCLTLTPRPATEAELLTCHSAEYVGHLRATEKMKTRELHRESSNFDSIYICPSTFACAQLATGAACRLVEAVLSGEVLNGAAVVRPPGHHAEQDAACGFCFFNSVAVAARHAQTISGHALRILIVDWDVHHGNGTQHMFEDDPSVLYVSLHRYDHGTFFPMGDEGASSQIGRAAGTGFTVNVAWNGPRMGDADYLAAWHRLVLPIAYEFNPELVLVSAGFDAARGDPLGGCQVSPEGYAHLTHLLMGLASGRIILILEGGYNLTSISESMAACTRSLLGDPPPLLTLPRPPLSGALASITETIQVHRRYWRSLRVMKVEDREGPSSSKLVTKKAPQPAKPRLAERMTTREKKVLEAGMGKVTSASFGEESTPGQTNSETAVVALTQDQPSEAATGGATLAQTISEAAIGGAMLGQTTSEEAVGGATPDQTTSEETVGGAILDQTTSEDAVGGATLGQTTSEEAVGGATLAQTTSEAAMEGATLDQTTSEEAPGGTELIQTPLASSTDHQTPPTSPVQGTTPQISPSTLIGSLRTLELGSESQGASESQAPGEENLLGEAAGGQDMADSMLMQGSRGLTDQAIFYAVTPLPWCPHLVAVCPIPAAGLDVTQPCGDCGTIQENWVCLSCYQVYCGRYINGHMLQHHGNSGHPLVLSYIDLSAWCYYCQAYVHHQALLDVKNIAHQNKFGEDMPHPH

[9] = system: Human immunodeficiency virus 1; assay: Reactivation of HIV-1 latency infected in human Th17 cells assessed as increase in HIV production by measuring phosphorylated S175 CDK9 levels at 10 nM incubated for 96 hrs by flow cytometry; format: functional
[10] = system: Human immunodeficiency virus 1; assay: Reactivation of HIV-1 latency infected in human Th17 cells assessed as increase in HIV production by measuring phosphorylated S175 CDK9 levels at 1 uM incubated for 96 hrs by flow cytometry; format: functional
[11] = Inhibition of HIV-1 latency infected in human ACH-2 cells assessed as fold increase in HIV production by measuring p24 level incubated for 48 hrs in presence of vorinostat by ELISA; format: functional, Human immunodeficiency virus 1, ACH-2 cell line
[12] = Inhibition of HIV-1 latency infected in human ACH-2 cells assessed as fold increase in HIV production by measuring p24 level incubated for 48 hrs in presence of 5-azacytidine by ELISA; format: functional, Human immunodeficiency virus 1, ACH-2 cell line
[13] = system: Human immunodeficiency virus 1; assay: Reactivation of HIV-1 latency in human ACH-2 cells assessed as fold increase in p24 expression at 1 uM incubated for 24 hrs by western blot analysis; format: functional, ACH-2 cell line
[14] = system: Human immunodeficiency virus 1; assay: Reactivation of HIV-1 latency in human U1 cells assessed as fold increase in p24 expression at 1 uM incubated for 24 hrs by western blot analysis; format: functional
[15] = system: Human immunodeficiency virus 1; assay: Reversal of HIV-1 latency infected in GFP-fused human J-Lat 10.6 cells increase in GFP expressing cells by FACS analysis; format: functional, organism-based; conditions: Human immunodeficiency virus 1, J-Lat 10.6
[16] = system: Human immunodeficiency virus 1; assay: Reactivation of HIV-1 latency in GFP-fused human primary CD4+ve Th cells infected with HIV-1NL4-3 luciferase virus assessed as fold increase in GFP expression incubated for 48 hrs by luciferase luminescence analysis; format: functional
[17] = system: Human immunodeficiency virus 1; assay: Reversal of HIV-1 latency infected in GFP-fused human J-Lat C11 cells assessed as increase in GFP expression at 10 uM incubated for 72 hrs by flow cytometry; format: functional
[18] = system: Human immunodeficiency virus 1; assay: Reversal of HIV-1 latency infected in GFP-fused human Jurkat latent cells assessed as increase in GFP expressing cells at 4 uM incubated for 48 hrs by flow cytometry analysis; format: functional

CN(C)c1ccc(C(=O)NCCCCCCC(=O)NO)cc1
Activity [1]: 25.2%

Cc1[nH]c2ccccc2c1CCNCc1ccc(/C=C/C(=O)NO)cc1 [PANOBINOSTAT]
fold change (FC) [2]: 12.8
fold change (FC) [3]: 27.7
fold change (FC) [4]: 51.8
fold change (FC) [5]: 19.9
EC50 [6]: 0.01 µM

COc1cc(OC)c2c(=O)[nH]c(-c3cc(C)c(OCCO)c(C)c3)nc2c1 [APABETALONE]
Activity [7]: 75%

O=C(/C=C/c1cccc(S(=O)(=O)Nc2ccccc2)c1)NO [BELINOSTAT]
EC50 (Histone deacetylase 4): 0.115 µM
EC50 [8]: 0.082 µM

CCN(c1cc(-c2ccc(CN3CCOCC3)cc2)cc(C(=O)NCc2c(C)cc(C)[nH]c2=O)c1C)C1CCOCC1 [TAZEMETOSTAT]
Activity [9]: 25%
Activity [10]: 35%

COc1cc2nc(N3CCCN(C)CC3)nc(NC3CCN(Cc4ccccc4)CC3)c2cc1OC
fold change (FC) [11]: 47
fold change (FC) [12]: 47

CC[C@@H]1C(=O)N(C)c2cnc(Nc3ccc(C(=O)NC4CCN(C)CC4)cc3OC)nc2N1C1CCCC1 [BI-2536]
fold change (FC) [13]: 261
fold change (FC) [14]: 177

O=C(/C=C/c1ccc(NC(=O)C(Cc2ccccc2)c2ccccc2)cn1)NO (stereo not drawn)
EC50 [15]: 0.35 µM
fold change (FC) [16]: 6.4

COc1cc2c(NC3CCN(C(C)C)CC3)nc(C3CCCCC3)nc2cc1OCCCN1CCCC1
Activity [9]: 22%
Activity [10]: 35%

CCCc1cc(C)[nH]c(=O)c1CNC(=O)c1cc(-c2ccnc(N3CCN(C)CC3)c2)cc2c1cnn2C(C)C
Activity [9]: 20%
Activity [10]: 35%

COc1ccccc1S(=O)(=O)Nc1ccc2c(c1)CN(C)C(=O)N2
Activity [17]: 89%

CC(=O)SCCCCC[C@H](NC(=O)C1CCC(=O)N1)C(=O)Nc1ccccc1 (stereo partly drawn)
Activity [18]: 52%
